Assay results as given in patent US20240294522A1 (Lead Discovery Center GmbH, priority 2021, published 2024).

Tests used:
GRK5 = target: T1, GRK5 (Homo sapiens, UniProt P34947); test: Lance Kinase Activity Assay, GRK5; settings: biochemical Lance kinase activity assay; class symbols A-F; read-out: GRK5 LANCE Assay (IC-50)
T1 construct: purchased Thermo Scientific
Procedure, shortened: (§1)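 IC50s from sigmoidal dose-response over 0.0025-10 μM compound, with phosphorylated ULight substrate detected by Eu anti-phospho antibody FRET after EDTA quench.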

GRK2 = target: T2, GRK2 (Homo sapiens, UniProt P25098); test: Lance Kinase Activity Assay, GRK2; settings: biochemical Lance kinase activity assay; class symbols A-F; read-out: GRK2 LANCE Assay (IC-50)
T2 construct: purchased Thermo Scientific
T2 sequence (P25098 1-689): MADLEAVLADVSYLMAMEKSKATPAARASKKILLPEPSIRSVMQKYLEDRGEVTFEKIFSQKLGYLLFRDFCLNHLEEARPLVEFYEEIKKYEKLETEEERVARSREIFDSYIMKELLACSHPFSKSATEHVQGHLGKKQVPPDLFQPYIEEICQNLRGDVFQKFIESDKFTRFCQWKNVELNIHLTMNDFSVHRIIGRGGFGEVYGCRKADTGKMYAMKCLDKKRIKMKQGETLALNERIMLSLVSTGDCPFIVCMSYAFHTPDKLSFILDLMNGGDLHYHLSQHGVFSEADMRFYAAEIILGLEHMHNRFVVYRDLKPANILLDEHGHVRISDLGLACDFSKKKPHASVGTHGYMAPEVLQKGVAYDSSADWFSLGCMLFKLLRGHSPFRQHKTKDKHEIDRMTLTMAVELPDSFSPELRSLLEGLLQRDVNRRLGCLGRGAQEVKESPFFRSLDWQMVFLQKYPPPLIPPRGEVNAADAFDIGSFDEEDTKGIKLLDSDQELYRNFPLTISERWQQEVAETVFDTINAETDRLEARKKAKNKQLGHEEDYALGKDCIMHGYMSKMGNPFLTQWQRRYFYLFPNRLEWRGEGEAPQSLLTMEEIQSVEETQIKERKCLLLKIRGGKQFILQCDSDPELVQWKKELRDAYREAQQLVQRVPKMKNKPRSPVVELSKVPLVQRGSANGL
Procedure, shortened: as §1

T1 sequence (P34947 whole entry): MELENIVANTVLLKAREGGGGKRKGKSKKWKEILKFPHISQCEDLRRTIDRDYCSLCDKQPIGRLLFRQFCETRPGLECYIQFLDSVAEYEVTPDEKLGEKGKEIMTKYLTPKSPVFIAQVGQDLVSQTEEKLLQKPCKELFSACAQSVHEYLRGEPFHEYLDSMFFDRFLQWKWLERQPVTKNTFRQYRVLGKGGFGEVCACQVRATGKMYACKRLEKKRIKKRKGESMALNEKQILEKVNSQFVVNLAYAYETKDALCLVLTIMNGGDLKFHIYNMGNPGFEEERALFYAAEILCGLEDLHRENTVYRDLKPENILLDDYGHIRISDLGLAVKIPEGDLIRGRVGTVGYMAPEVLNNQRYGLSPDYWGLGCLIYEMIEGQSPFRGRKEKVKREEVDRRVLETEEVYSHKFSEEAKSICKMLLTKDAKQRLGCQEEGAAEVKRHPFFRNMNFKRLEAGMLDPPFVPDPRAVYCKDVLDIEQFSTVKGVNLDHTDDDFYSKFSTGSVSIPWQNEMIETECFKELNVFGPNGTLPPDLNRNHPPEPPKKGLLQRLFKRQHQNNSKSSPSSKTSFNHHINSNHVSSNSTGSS

## COc1ccc([C@@H](C)NC(=O)/C(C#N)=C/c2c[nH]c3ncc(N4CCOCC4)cc23)cc1OC [Example 84, (R,E)-2-cyano-N-(1-(3,4-dimethoxyphenyl)ethyl)-3-(5-morpholino-1H-pyrrolo[2,3-b]pyridin-3-yl)acrylamide]
GRK5
  IC50: ≤ 50 nM
GRK2
  IC50: 1000 to 10000 nM

## COc1ccc([C@@H](C)NC(=O)/C(C#N)=C/c2c[nH]c3ncc(N4CCN(C)CC4)cc23)cc1OC [Example 85]
GRK5
  IC50: ≤ 50 nM
GRK2
  IC50: > 10000 nM

## COc1ccc([C@@H](C)NC(=O)/C(C#N)=C/c2c[nH]c3ncc(C#N)cc23)cc1OC [Example 86, (R,E)-2-cyano-3-(5-cyano-1H-pyrrolo[2,3-b]pyridin-3-yl)-N-(1-(3,4-dimethoxyphenyl)ethyl)acrylamide]
GRK5
  IC50: 100 to 500 nM
GRK2
  IC50: > 10000 nM

## COc1ccc([C@@H](C)NC(=O)/C(C#N)=C/c2c[nH]c3ncc(C)cc23)cc1OC [Example 87, (R,E)-2-cyano-N-(1-(3,4-dimethoxyphenyl)ethyl)-3-(5-methyl-1H-pyrrolo[2,3-b]pyridin-3-yl)acrylamide]
GRK5
  IC50: ≤ 50 nM
GRK2
  IC50: 500 to 1000 nM

## COc1ccc([C@@H](C)NC(=O)/C(C#N)=C/c2c[nH]c3ncc(Nc4ccccc4)cc23)cc1OC [Example 88, (R,E)-2-cyano-N-(1-(3,4-dimethoxyphenyl)ethyl)-3-(5-(phenylamino)-1H-pyrrolo[2,3-b]pyridin-3-yl)acrylamide]
GRK5
  IC50: ≤ 50 nM
GRK2
  IC50: 1000 to 10000 nM

## COc1ccc([C@@H](C)NC(=O)/C(C#N)=C/c2c[nH]c3nc(Br)ccc23)cc1OC [Example 90, (R,E)-3-(6-bromo-1H-pyrrolo[2,3-b]pyridin-3-yl)-2-cyano-N-(1-(3,4-dimethoxyphenyl)ethyl)acrylamide]
GRK5
  IC50: 100 to 500 nM
GRK2
  IC50: > 10000 nM

## C[C@@H](NC(=O)/C(C#N)=C/c1c[nH]c2ncc(-c3cnn(C)c3)cc12)c1ccccc1 [Example 91, (R,E)-2-cyano-3-(5-(1-methyl-1H-pyrazol-4-yl)-1H-pyrrolo[2,3-b]pyridin-3-yl)-N-(1-phenylethyl)acrylamide]
GRK5
  IC50: ≤ 50 nM
GRK2
  IC50: 100 to 500 nM

## C[C@@H](NC(=O)/C(C#N)=C/c1c[nH]c2ncc(-c3cnn(C)c3)cc12)c1ccc(F)cc1 [Example 93, (R,E)-2-cyano-N-(1-(4-fluorophenyl)ethyl)-3-(5-(1-methyl-1H-pyrazol-4-yl)-1H-pyrrolo[2,3-b]pyridin-3-yl)acrylamide]
GRK5
  IC50: ≤ 50 nM
GRK2
  IC50: 100 to 500 nM

## C[C@@H](NC(=O)/C(C#N)=C/c1c[nH]c2ncc(-c3cnn(C)c3)cc12)c1ccc(Cl)cc1 [Example 95, (R,E)-N-(1-(4-chlorophenyl)ethyl)-2-cyano-3-(5-(1-methyl-1H-pyrazol-4-yl)-1H-pyrrolo[2,3-b]pyridin-3-yl)acrylamide]
GRK5
  IC50: 50 to 100 nM
GRK2
  IC50: 1000 to 10000 nM

## C[C@@H](NC(=O)/C(C#N)=C/c1c[nH]c2ncc(-c3cnn(C)c3)cc12)c1cccc(Cl)c1 [Example 96, (R,E)-N-(1-(3-chlorophenyl)ethyl)-2-cyano-3-(5-(1-methyl-1H-pyrazol-4-yl)-1H-pyrrolo[2,3-b]pyridin-3-yl)acrylamide]
GRK5
  IC50: ≤ 50 nM
GRK2
  IC50: 100 to 500 nM

## Cc1c(-c2cnn(C)c2)cnc2[nH]cc(/C=C(\C#N)C(=O)N[C@H](C)c3ccccc3)c12 [Example 97, (R,E)-2-cyano-3-(4-methyl-5-(1-methyl-1H-pyrazol-4-yl)-1H-pyrrolo[2,3-b]pyridin-3-yl)-N-(1-phenylethyl)acrylamide]
GRK5
  IC50: 500 to 1000 nM
GRK2
  IC50: 500 to 1000 nM

## Cc1c(-c2cnn(C)c2)cnc2[nH]cc(/C=C(\C#N)C(=O)N[C@H](C)c3ccc(F)cc3)c12 [Example 98, (R,E)-2-cyano-N-(1-(4-fluorophenyl)ethyl)-3-(4-methyl-5-(1-methyl-1H-pyrazol-4-yl)-1H-pyrrolo[2,3-b]pyridin-3-yl)acrylamide]
GRK5
  IC50: 500 to 1000 nM
GRK2
  IC50: 500 to 1000 nM

## COc1ccc([C@@H](C)NC(=O)/C(C#N)=C/c2c[nH]c3ncc(-c4cnn(C)c4)c(C)c23)cc1OC [Example 99, (R,E)-2-cyano-N-(1-(3,4-dimethoxyphenyl)ethyl)-3-(4-methyl-5-(1-methyl-1H-pyrazol-4-yl)-1H-pyrrolo[2,3-b]pyridin-3-yl)acrylamide]
GRK5
  IC50: 100 to 500 nM
GRK2
  IC50: > 10000 nM

## Cc1c(-c2cnn(C)c2)cnc2[nH]cc(/C=C(\C#N)C(=O)N[C@H](C)c3ccc(Cl)cc3)c12 [Example 100, (R,E)-N-(1-(4-chlorophenyl)ethyl)-2-cyano-3-(4-methyl-5-(1-methyl-1H-pyrazol-4-yl)-1H-pyrrolo[2,3-b]pyridin-3-yl)acrylamide]
GRK5
  IC50: 500 to 1000 nM
GRK2
  IC50: 1000 to 10000 nM

## COc1ccc([C@@H](C)NC(=O)/C(C#N)=C/c2c[nH]c3ncc(OCc4cc(C)nn4C)cc23)cc1OC [Example 101, (R,E)-2-cyano-N-(1-(3,4-dimethoxyphenyl)ethyl)-3-(5-((1,3-dimethyl-1H-pyrazol-5-yl)methoxy)-1H-pyrrolo[2,3-b]pyridin-3-yl)acrylamide]
GRK5
  IC50: 50 to 100 nM
GRK2
  IC50: > 10000 nM

## COc1ccc([C@@H](C)NC(=O)/C(C#N)=C/c2c[nH]c3ncc(OC(C)C)cc23)cc1OC [Example 102, (R,E)-2-cyano-N-(1-(3,4-dimethoxyphenyl)ethyl)-3-(5-isopropoxy-1H-pyrrolo[2,3-b]pyridin-3-yl)acrylamide]
GRK5
  IC50: ≤ 50 nM
GRK2
  IC50: > 10000 nM

## COc1ccc([C@@H](C)NC(=O)/C(C#N)=C/c2c[nH]c3ncc(OC4CCOC4)cc23)cc1OC (stereo partly drawn) [Example 103, (E)-2-cyano-N-((R)-1-(3,4-dimethoxyphenyl)ethyl)-3-(5-((tetrahydrofuran-3-yl)oxy)-1H-pyrrolo[2,3-b]pyridin-3-yl)acrylamide]
GRK5
  IC50: ≤ 50 nM
GRK2
  IC50: 1000 to 10000 nM

## COc1ccc([C@@H](C)NC(=O)/C(C#N)=C/c2c[nH]c3ncc(OC4CCS(=O)(=O)CC4)cc23)cc1OC [Example 105, (R,E)-2-cyano-N-(1-(3,4-dimethoxyphenyl)ethyl)-3-(5-((1,1-dioxidotetrahydro-2H-thiopyran-4-yl)oxy)-1H-pyrrolo[2,3-b]pyridin-3-yl)acrylamide]
GRK5
  IC50: ≤ 50 nM
GRK2
  IC50: 1000 to 10000 nM

## COc1ccc([C@@H](C)NC(=O)/C(C#N)=C/c2c[nH]c3ncc(OCc4nccn4C)cc23)cc1OC [Example 106, (R,E)-2-cyano-N-(1-(3,4-dimethoxyphenyl)ethyl)-3-(5-((1-methyl-1H-imidazol-2-yl)methoxy)-1H-pyrrolo[2,3-b]pyridin-3-yl)acrylamide]
GRK5
  IC50: ≤ 50 nM
GRK2
  IC50: 1000 to 10000 nM

## COc1ccc([C@@H](C)NC(=O)/C(C#N)=C/c2c[nH]c3ncc(O[C@@H]4CCOC4)cc23)cc1OC [Example 107, (E)-2-cyano-N-((R)-1-(3,4-dimethoxyphenyl)ethyl)-3-(5-(((R)-tetrahydrofuran-3-yl)oxy)-1H-pyrrolo[2,3-b]pyridin-3-yl)acrylamide]
GRK5
  IC50: ≤ 50 nM
GRK2
  IC50: 500 to 1000 nM

## COc1ccc([C@@H](C)NC(=O)/C(C#N)=C/c2c[nH]c3ncc(O[C@H]4CCOC4)cc23)cc1OC [Example 108, (E)-2-cyano-N-((R)-1-(3,4-dimethoxyphenyl)ethyl)-3-(5-(((S)-tetrahydrofuran-3-yl)oxy)-1H-pyrrolo[2,3-b]pyridin-3-yl)acrylamide]
GRK5
  IC50: ≤ 50 nM
GRK2
  IC50: 1000 to 10000 nM

## CC[C@H](C)Oc1cnc2[nH]cc(/C=C(\C#N)C(=O)N[C@H](C)c3ccc(OC)c(OC)c3)c2c1 [Example 109, (E)-3-(5-((S)-sec-butoxy)-1H-pyrrolo[2,3-b]pyridin-3-yl)-2-cyano-N-((R)-1-(3,4-dimethoxyphenyl)ethyl)acrylamide]
GRK5
  IC50: ≤ 50 nM
GRK2
  IC50: > 10000 nM

## COc1ccc([C@@H](C)NC(=O)/C(C#N)=C/c2c[nH]c3ncc(OC4CCOCC4)cc23)cc1OC [Example 111, (R,E)-2-cyano-N-(1-(3,4-dimethoxyphenyl)ethyl)-3-(5-((tetrahydro-2H-pyran-4-yl)oxy)-1H-pyrrolo[2,3-b]pyridin-3-yl)acrylamide]
GRK5
  IC50: ≤ 50 nM
GRK2
  IC50: 1000 to 10000 nM

## COc1ccc([C@@H](C)NC(=O)/C(C#N)=C/c2c[nH]c3ncc(-c4ccc(N5CCN(C)CC5)cc4)cc23)cc1OC [Example 112, (R,E)-2-cyano-N-(1-(3,4-dimethoxyphenyl)ethyl)-3-(5-(4-(4-methylpiperazin-1-yl)phenyl)-1H-pyrrolo[2,3-b]pyridin-3-yl)acrylamide]
GRK5
  IC50: ≤ 50 nM
GRK2
  IC50: 500 to 1000 nM

## COc1ccc([C@@H](C)NC(=O)/C=C/c2c[nH]c3ncc(-c4cccc(S(C)(=O)=O)c4)cc23)cc1OC [Example 114, (R,E)-N-(1-(3,4-dimethoxyphenyl)ethyl)-3-(5-(3-(methylsulfonyl)phenyl)-1H-pyrrolo[2,3-b]pyridin-3-yl)acrylamide]
GRK5
  IC50: ≤ 50 nM
GRK2
  IC50: 1000 to 10000 nM

## COc1ccc([C@@H](C)NC(=O)/C=C/c2c[nH]c3ncc(-c4cc(F)cc(F)c4)cc23)cc1OC [Example 115, (R,E)-3-(5-(3,5-difluorophenyl)-1H-pyrrolo[2,3-b]pyridin-3-yl)-N-(1-(3,4-dimethoxyphenyl)ethyl)acrylamide]
GRK5
  IC50: 100 to 500 nM
GRK2
  IC50: > 10000 nM
